Source: PubChem BioAssay AID2060891 (Molecular Pharmacology Branch, DTP, NCI, 2025)

System: K98450-129-R-PDC complex spheroid growth, percent test/control
Assay: Anticancer human tumor K98450-129-R-PDC patient-derived colon adenocarcinoma cell line growth inhibition [RAS]
Details: for IC50: curve of first compound; for viability, T/C: stronger effect = lower value
From the text: RAS pathway inhibitors in Combinations in Complex Spheroids
A high-throughput screen of multi-cell type tumor spheroids was designed to identify active combinations of RAS pathway inhibitors and targeted small molecules. Complex spheroids include a stromal component modeled by human endothelial cells (HUVEC) and fibroblasts modeled by human mesenchymal stem cells (MSCs). The concentration ranges selected for each drug and investigational agent were based upon clinically achievable concentrations if the clinical Cmax of the agent was known.
Compounds. The drugs and investigational agents: abemaciclib (NSC768073), cobimetinib (NSC768068), divarasib (GDC6063, NSC841802), docetaxel (NSC628503), GDC-1971 (RLY-1971, NSC841576), gemcitabine (NSC613327), inavolisib (NSC800729), ipatasertib (NSC767898), KB-0742 (NSC834161), MRTX-1133 (NSC836407), osimertinib (NSC779217), RMC-4630 (NSC839698), RMC-6236 (NSC851965), RMC-6291 (NSC852671), Ro-3306 (NSC812927), sapanisertib (NSC764658), SN-38 (NSC673596), staurosporine (NSC755774), SY5609 (NSC837396), and tovorafenib (DAY101, NSC766906), were obtained from the National Cancer Institute (NCI) Developmental Therapeutics Program Chemical Repository. The FDA-approved anticancer drug set is available from the NCI Developmental Therapeutics Program. […] The stock solutions were prepared in dimethyl sulfoxide (DMSO, Sigma-Aldrich, St. Louis, MO, cat. D2650) at 800-fold the tested concentration and stored at -70 degrees C prior to their use. All drugs and investigational agents were tested over a range starting from a high concentration at or near the clinical Cmax and decreasing in half-log increments. If the clinical Cmax for an agent had not been determined, the highest concentration tested was 10 microM.
Cell Culture. All cells were maintained in an incubator at 37 degrees C and 5% CO2 with 95% humidity. The PDC lines were cultured according to standard operating procedures established by the NCI PDMR. All PDCs were thawed and cultured in Matrigel-coated flasks prepared with a working solution of 1X Ham's F-12 nutrient mix, without supplementation (Invitrogen, Waltham, MA, cat. 11765054), 100 U/mL penicillin-streptomycin (Invitrogen, cat. 15140122), and 2.5% Matrigel (Corning Inc., Corning, NY, cat. 354248) for the first three passages. The 362531-283-R-J2-PDC and 782815-120-R-J1-PDC lines were cultured in 6C/Colon 1B media, which includes advanced DMEM/F-12 (Thermo Fisher Scientific, cat. 12634028), 10 mM HEPES (Thermo Fisher Scientific, cat. 15630080), 1X GlutaMAX supplement (Thermo Fisher Scientific, cat. 35050061), 0.1 mg/mL primocin (InvivoGen, San Diego, CA, cat. ant-pm-2), 10% defined fetal bovine serum, heat inactivated (HyClone Laboratories Inc., Logan, UT, cat. SH30070.03HI), 50% L-WRN conditioned media (ATCC, cat. CRL-3276), 1.25 mM N-Acetyl-L-cysteine (Sigma-Aldrich, cat. A9165), 10 mM nicotinamide (Sigma-Aldrich, cat. N0636), 1X B-27 supplement (Thermo Fisher Scientific, cat. 17504044), 1X N-2 supplement (Thermo Fisher Scientific, cat. 17502048), 50 ng/mL human EGF (Thermo Fisher Scientific, cat. PHG0311), and 10 microM Y-27632 dihydrochloride (Tocris Bioscience, cat. 1254). The K12877-001-R-J1-PDC line was cultured in 6I media, which includes all 6C/Colon 1B media plus 10 ng/mL human FGF-10 (PeproTech, cat. 100-26), 1 ng/mL human FGF-2 (PeproTech, cat. 100-18B), 1 µM prostaglandin E2 (Tocris Bioscience, cat. 2296), […] hydrocortisone (Sigma-Aldrich, cat. H4001), and […] bovine insulin (Sigma-Aldrich, cat. I6634). The K86415-001-R-J1-PDC line was cultured in 6D media, which includes all 6C/Colon 1B media components minus the L-WRN conditioned media. The 485176-168-R4-J1-PDC was cultured in PANC media, which includes all 6C/Colon 1B media plus 100 ng/mL human FGF-10 (PeproTech, cat. 100-26), 500 nM SB-431542 (Selleckchem, cat. S1067), and 10 nM gastrin (Tocris Bioscience, cat. 3006). […]

[1] = second compound 0.0316 µM, first compound 0.0316 µM
[2] = second compound 0.0316 µM, first compound 0.1 µM
[3] = second compound 0.0316 µM, first compound 0.316 µM
[4] = second compound 0.0316 µM, first compound 1 µM
[5] = second compound 0.0316 µM, first compound 3.16 µM
[6] = second compound 0.0316 µM, first compound 10 µM
[7] = second compound 0.1 µM, first compound 0.0316 µM
[8] = second compound 0.1 µM, first compound 0.1 µM
[9] = second compound 0.1 µM, first compound 0.316 µM
[10] = second compound 0.1 µM, first compound 1 µM
[11] = second compound 0.1 µM, first compound 3.16 µM
[12] = second compound 0.1 µM, first compound 10 µM
[13] = second compound 0.316 µM, first compound 0.0316 µM
[14] = second compound 0.316 µM, first compound 0.1 µM
[15] = second compound 0.316 µM, first compound 0.316 µM
[16] = second compound 0.316 µM, first compound 1 µM
[17] = second compound 0.316 µM, first compound 3.16 µM
[18] = second compound 0.316 µM, first compound 10 µM
[19] = second compound 1 µM, first compound 0.0316 µM
[20] = second compound 1 µM, first compound 0.1 µM
[21] = second compound 1 µM, first compound 0.316 µM
[22] = second compound 1 µM, first compound 1 µM
[23] = second compound 1 µM, first compound 3.16 µM
[24] = second compound 1 µM, first compound 10 µM
[25] = second compound 3.16 µM, first compound 0.0316 µM
[26] = second compound 3.16 µM, first compound 0.1 µM
[27] = second compound 3.16 µM, first compound 0.316 µM
[28] = second compound 3.16 µM, first compound 1 µM
[29] = second compound 3.16 µM, first compound 3.16 µM
[30] = second compound 3.16 µM, first compound 10 µM
[31] = second compound 10 µM, first compound 0.0316 µM
[32] = second compound 10 µM, first compound 0.1 µM
[33] = second compound 10 µM, first compound 0.316 µM
[34] = second compound 10 µM, first compound 1 µM
[35] = second compound 10 µM, first compound 3.16 µM
[36] = second compound 10 µM, first compound 10 µM
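Further: spheroids exposed to agents for seven days before the viability readout.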
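Wherever viability, T/C is given: luminescence used as a proxy for viable cell amount.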

`CC(C)NCC(C(=O)N1CCN(c2ncnc3c2C(C)CC3O)CC1)c1ccc(Cl)cc1` (stereo unspecified) + C#Cc1c(F)ccc2cc(O)cc(-c3ncc4c(N5CC6CCC(C5)N6)nc(OCC56CCCN5CC(F)C6)nc4c3F)c12 showed an IC50 (second compound 0.0316 µM) of over 10 µM, an IC50 (second compound 0.1 µM) of over 10 µM and an IC50 (second compound 0.316 µM) of over 10 µM. The IC50 (second compound 1 µM) was over 10 µM, the IC50 (second compound 3.16 µM) was over 10 µM and the IC50 (second compound 10 µM) was over 10 µM. For the same compound, the viability, T/C [1] was 110%, the viability, T/C [2] was 106% and the viability, T/C [3] was 92.9%. For the same compound, the viability, T/C [4] was 99.2%, the viability, T/C [5] was 104% and the viability, T/C [6] was 96.7%. It also gave a viability, T/C [7] of 110%, a viability, T/C [8] of 96.9% and a viability, T/C [9] of 106%. It also gave a viability, T/C [10] of 98%, a viability, T/C [11] of 113% and a viability, T/C [12] of 103%. The viability, T/C [13] was 105%, the viability, T/C [14] was 96.1% and the viability, T/C [15] was 110%. It also gave a viability, T/C [16] of 97.3%, a viability, T/C [17] of 104% and a viability, T/C [18] of 98.6%. The viability, T/C [19] was 99.5%, the viability, T/C [20] was 96.8% and the viability, T/C [21] was 96.1%. It also gave a viability, T/C [22] of 95.7%, a viability, T/C [23] of 104% and a viability, T/C [24] of 99.2%. It also gave a viability, T/C [25] of 95.7%, a viability, T/C [26] of 86.5% and a viability, T/C [27] of 97.3%. It also gave a viability, T/C [28] of 93.8%, a viability, T/C [29] of 98.7% and a viability, T/C [30] of 88.2%. It also gave a viability, T/C [31] of 83.9%, a viability, T/C [32] of 82.6% and a viability, T/C [33] of 81.9%. It also gave a viability, T/C [34] of 85.9%, a viability, T/C [35] of 91.5% and a viability, T/C [36] of 81.9%.

Work on `CC(Nc1ccc2c(c1)OCCn1cc(N3C(=O)OCC3C(F)F)nc1-2)C(N)=O` (stereo unspecified) + C#Cc1c(F)ccc2cc(O)cc(-c3ncc4c(N5CC6CCC(C5)N6)nc(OCC56CCCN5CC(F)C6)nc4c3F)c12 yielded an IC50 (second compound 0.0316 µM) of over 10 µM, an IC50 (second compound 0.1 µM) of over 10 µM and an IC50 (second compound 0.316 µM) of over 10 µM. It also gave an IC50 (second compound 1 µM) of over 10 µM, an IC50 (second compound 3.16 µM) of over 10 µM and an IC50 (second compound 10 µM) of over 10 µM. It also gave a viability, T/C [1] of 105%, a viability, T/C [2] of 94.6% and a viability, T/C [3] of 95.1%. The viability, T/C [4] was 94.4%, the viability, T/C [5] was 83.6% and the viability, T/C [6] was 73.8%. It also gave a viability, T/C [7] of 102%, a viability, T/C [8] of 98.1% and a viability, T/C [9] of 88.3%. For the same compound, the viability, T/C [10] was 95.1%, the viability, T/C [11] was 83% and the viability, T/C [12] was 70.4%. For the same compound, the viability, T/C [13] was 114%, the viability, T/C [14] was 98.1% and the viability, T/C [15] was 95.7%. It also gave a viability, T/C [16] of 91.1%, a viability, T/C [17] of 84.3% and a viability, T/C [18] of 72.1%. The viability, T/C [19] was 102%, the viability, T/C [20] was 103% and the viability, T/C [21] was 94.8%. For the same compound, the viability, T/C [22] was 84%, the viability, T/C [23] was 81.8% and the viability, T/C [24] was 64.3%. It also gave a viability, T/C [25] of 89.8%, a viability, T/C [26] of 93.3% and a viability, T/C [27] of 88.4%. For the same compound, the viability, T/C [28] was 74.2%, the viability, T/C [29] was 72.5% and the viability, T/C [30] was 68.4%. It also gave a viability, T/C [31] of 80.5%, a viability, T/C [32] of 83.5% and a viability, T/C [33] of 82.2%. For the same compound, the viability, T/C [34] was 68.1%, the viability, T/C [35] was 64.8% and the viability, T/C [36] was 57.3%.

For `O=C(c1ccc(F)c(F)c1Nc1ccc(I)cc1F)N1CC(O)([C@@H]2CCCCN2)C1` + C#Cc1c(F)ccc2cc(O)cc(-c3ncc4c(N5CC6CCC(C5)N6)nc(OCC56CCCN5CC(F)C6)nc4c3F)c12, the IC50 (second compound 0.0316 µM) was 0.187 µM, the IC50 (second compound 0.1 µM) was 0.185 µM and the IC50 (second compound 0.316 µM) was 0.17 µM. For the same compound, the IC50 (second compound 1 µM) was 0.171 µM, the IC50 (second compound 3.16 µM) was 0.159 µM and the IC50 (second compound 10 µM) was 0.125 µM. The viability, T/C (second compound 0.0316 µM, first compound 0.00316 µM) was 108%, the viability, T/C (second compound 0.0316 µM, first compound 0.01 µM) was 105% and the viability, T/C [1] was 90.7%. It also gave a viability, T/C [2] of 87.1%, a viability, T/C [3] of 19.3% and a viability, T/C [4] of 3.6%. For the same compound, the viability, T/C (second compound 0.1 µM, first compound 0.00316 µM) was 113%, the viability, T/C (second compound 0.1 µM, first compound 0.01 µM) was 100% and the viability, T/C [7] was 107%. The viability, T/C [8] was 84.3%, the viability, T/C [9] was 20.2% and the viability, T/C [10] was 4.03%. For the same compound, the viability, T/C (second compound 0.316 µM, first compound 0.00316 µM) was 109%, the viability, T/C (second compound 0.316 µM, first compound 0.01 µM) was 106% and the viability, T/C [13] was 95.6%. The viability, T/C [14] was 77.7%, the viability, T/C [15] was 18.3% and the viability, T/C [16] was 4.22%. It also gave a viability, T/C (second compound 1 µM, first compound 0.00316 µM) of 105%, a viability, T/C (second compound 1 µM, first compound 0.01 µM) of 99.8% and a viability, T/C [19] of 93.2%. It also gave a viability, T/C [20] of 77.3%, a viability, T/C [21] of 19.3% and a viability, T/C [22] of 3.49%. It also gave a viability, T/C (second compound 3.16 µM, first compound 0.00316 µM) of 97%, a viability, T/C (second compound 3.16 µM, first compound 0.01 µM) of 89.7% and a viability, T/C [25] of 91.3%. It also gave a viability, T/C [26] of 73.1%, a viability, T/C [27] of 15.6% and a viability, T/C [28] of 4.86%. The viability, T/C (second compound 10 µM, first compound 0.00316 µM) was 86%, the viability, T/C (second compound 10 µM, first compound 0.01 µM) was 82.1% and the viability, T/C [31] was 70.5%. It also gave a viability, T/C [32] of 60.7%, a viability, T/C [33] of 12.1% and a viability, T/C [34] of 3.34%.
